Test systems include SK-OV-3; HCT-15; RXF 393; KM12; UO-31; LOX IMVI; OVCAR-4; HT-29; K562; U-251; HCC 2998; SF-268; OVCAR-5; ACHN; HOP-62; TK-10; Malme-3M.
Assay in all cases: NCI anticancer screen, dose series, 48 h

Structures are written as SMILES.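 Grown in 96-well plates, cells were treated for 48 hours with each compound at five concentrations. Insufficient inhibition: endpoint recorded as highest concentration tested. Abbreviation: GI50, concentration required for 50% inhibition of growth.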 Activity calls are given as the source filed them. No stated cut-off is given here; in the data, active = GI50 up to about 1.1 µM and inactive = higher.

As to `Cc1cn(C2CC3C(COCN3O)O2)c(=O)[nH]c1=O` (stereo not drawn), the GI50 is > 100 µM (inactive) in the assay on SK-OV-3; > 100 µM with HCT-15; > 100 µM (inactive) in the assay with RXF 393; > 100 µM (inactive) with KM12; > 100 µM (inactive) with UO-31; > 100 µM (inactive) in the assay on LOX IMVI. The GI50 with OVCAR-4, in the assay on HT-29, in the assay on K562, in the assay on U-251, in the assay with HCC 2998 and in the assay with SF-268 was > 100 µM (inactive) in each case. For the same compound, the GI50 in the assay on OVCAR-5, with ACHN, in the assay on HOP-62 and with TK-10 was > 100 µM (inactive) each time.

On to `Cc1ccc(C)c(N2C(=O)C(=O)C(c3nc4ccccc4o3)C(=O)C2=O)c1`, for which the GI50 is > 100 µM (inactive) with SK-OV-3; 99.5 µM in the assay on HCT-15; > 100 µM (inactive) in the assay with RXF 393; > 100 µM (inactive) in the assay on KM12; > 100 µM (inactive) with UO-31; 37.6 µM (inactive) in the assay on OVCAR-4. Moreover, the GI50 in the assay on HT-29 was 49.5 µM (inactive); with U-251, 96.6 µM (inactive); in the assay with HCC 2998, > 100 µM (inactive); with SF-268, > 100 µM (inactive); in the assay on ACHN, > 100 µM (inactive); in the assay on HOP-62, > 100 µM (inactive). Further, the values for the GI50 with TK-10 and in the assay on Malme-3M were > 100 µM (inactive) and 49.2 µM (inactive), respectively.

Take `CC1=CC(=O)CCC2(C)C1CC[C@@H]2OC=O` (stereo partly drawn): the GI50 with SK-OV-3, in the assay on RXF 393, in the assay on KM12, with UO-31, in the assay on LOX IMVI and with OVCAR-4 was > 100 µM (inactive) throughout. Besides, the GI50 in the assay on HT-29, with K562, in the assay on U-251, with HCC 2998, with SF-268 and in the assay with OVCAR-5 was > 100 µM (inactive) in each case. For the same compound, the figures for the GI50 with ACHN, in the assay on HOP-62 and with TK-10 were > 100 µM (inactive), 53.6 µM (inactive) and > 100 µM (inactive), respectively.

Turning to `COc1cc2c(cc1OC)[C@@H](Nc1ccc(F)cc1)C1COC(=O)[C@@H]1C2c1cc(OC)c(O)c(OC)c1` (stereo partly drawn), the GI50 is 1.56 µM (inactive) with SK-OV-3; 1.67 µM in the assay on HCT-15; 3.4 µM (inactive) in the assay on RXF 393; 2.77 µM (inactive) in the assay on KM12; 2.14 µM (inactive) in the assay on UO-31; 0.671 µM (active) in the assay on LOX IMVI. The GI50 was 16.7 µM (inactive) with OVCAR-4; 3.66 µM (inactive) in the assay with HT-29; 1.19 µM (inactive) with K562; 0.493 µM (active) in the assay with U-251; 2.65 µM (inactive) in the assay on HCC 2998; 2.1 µM (inactive) in the assay with SF-268. Also, the GI50 in the assay with OVCAR-5 was 3.33 µM (inactive); in the assay with ACHN it was 0.12 µM (active); with HOP-62, 0.128 µM (active); in the assay on TK-10 it was 7.18 µM (inactive); with Malme-3M, 3.07 µM (inactive).

In the case of `COc1cccc2nc3cc(C)c(C)cc3nc12`, the GI50 is 78.3 µM (inactive) with SK-OV-3; > 100 µM with HCT-15; > 100 µM (inactive) in the assay on RXF 393; > 100 µM (inactive) with KM12; 61.2 µM (inactive) in the assay with UO-31; 96.8 µM (inactive) with LOX IMVI. The GI50 in the assay on OVCAR-4, in the assay on HT-29, in the assay on K562, with U-251, in the assay on HCC 2998 and with SF-268 was > 100 µM (inactive) in each case. Moreover, the GI50 in the assay with OVCAR-5, with ACHN, in the assay with HOP-62, in the assay on TK-10 and in the assay on Malme-3M was > 100 µM (inactive) in each case.

As for `CN(C)C(=O)Nc1c([N+](=O)[O-])cc(C(F)(F)F)cc1[N+](=O)[O-]`, the GI50 in the assay on SK-OV-3 is > 100 µM (inactive); in the assay on HCT-15 it was 37.1 µM; in the assay on RXF 393 it was 8.45 µM (inactive); in the assay on KM12 it was 37 µM (inactive); in the assay with UO-31, > 100 µM (inactive); in the assay on LOX IMVI it was 28.8 µM (inactive). Also, the GI50 is 27.7 µM (inactive) in the assay with OVCAR-4; 35 µM (inactive) in the assay with HT-29; 37.6 µM (inactive) with K562; > 100 µM (inactive) with U-251; > 100 µM (inactive) with SF-268; > 100 µM (inactive) with OVCAR-5. The GI50 is 83.4 µM (inactive) in the assay with ACHN, > 100 µM (inactive) in the assay on HOP-62 and > 100 µM (inactive) in the assay on TK-10.

Take `Nc1nc2ncn(CC(O)COC(=O)c3ccccc3)c2c(=O)[nH]1` (stereo not drawn): the GI50 in the assay with SK-OV-3 is > 100 µM (inactive); in the assay on HCT-15, > 100 µM; in the assay on RXF 393 it was > 100 µM (inactive); with KM12 it was > 100 µM (inactive); with UO-31, > 100 µM (inactive); in the assay on LOX IMVI, > 100 µM (inactive). The GI50 with OVCAR-4, in the assay on HT-29, in the assay with K562, in the assay with U-251, with SF-268 and in the assay with OVCAR-5 was > 100 µM (inactive) throughout. Moreover, the GI50 in the assay on ACHN, in the assay with HOP-62, with TK-10 and in the assay on Malme-3M was > 100 µM (inactive) throughout.

As for `COc1ccc(-c2cc3ccccc3[nH]c2=O)cc1OC`, the GI50 in the assay on SK-OV-3 is > 100 µM (inactive); in the assay on HCT-15, > 100 µM; with RXF 393, 47.5 µM (inactive); in the assay with KM12 it was > 100 µM (inactive); with UO-31, > 100 µM (inactive); in the assay on LOX IMVI, > 100 µM (inactive). Further, the GI50 is > 100 µM (inactive) in the assay with OVCAR-4; > 100 µM (inactive) in the assay with HT-29; > 100 µM (inactive) in the assay on K562; 71.6 µM (inactive) in the assay with U-251; > 100 µM (inactive) with HCC 2998; > 100 µM (inactive) in the assay on SF-268. The GI50 in the assay with OVCAR-5, in the assay with ACHN, in the assay with HOP-62, in the assay on TK-10 and in the assay with Malme-3M was > 100 µM (inactive) throughout.

In the case of `Cc1cccc(C2SCc3nc4ccccc4n32)c1` (stereo not drawn), the GI50 is 24.7 µM (inactive) in the assay on SK-OV-3; 18.6 µM in the assay with HCT-15; 14.9 µM (inactive) in the assay with RXF 393; 19.8 µM (inactive) in the assay with KM12; 28.6 µM (inactive) in the assay on LOX IMVI; 28.2 µM (inactive) with OVCAR-4. Besides, the GI50 with HT-29 is 27.9 µM (inactive); in the assay on K562, 14.2 µM (inactive); in the assay with U-251, 19.7 µM (inactive); with SF-268, 36.7 µM (inactive); with OVCAR-5, 5.25 µM (inactive); in the assay on ACHN, 24.3 µM (inactive). Further, the GI50 in the assay with HOP-62 was 23.6 µM (inactive); in the assay with TK-10, 21.9 µM (inactive); in the assay with Malme-3M, 14.7 µM (inactive).

`CC1OC(OC2C(OC(=O)[C@]34CCC(C)(C)CC3C3=CCC5[C@@]6(C)C[C@H](O)[C@H](OC7OC(CO)C(O)C(O)C7N)[C@@](C)(C(=O)O)C6CC[C@@]5(C)C3(C)CC4)OCC(O)C2O)C(O)C(O)C1OC1OCC(O)C(O)C1O` (stereo partly drawn): the GI50 in the assay with SK-OV-3 was > 100 µM (inactive); in the assay with HCT-15, > 100 µM; in the assay with RXF 393, > 100 µM (inactive); with KM12 it was > 100 µM (inactive); in the assay with UO-31, > 100 µM (inactive); in the assay with LOX IMVI, > 100 µM (inactive). Further, the GI50 in the assay on HT-29, in the assay on K562, with U-251, in the assay on HCC 2998, in the assay on SF-268 and in the assay with OVCAR-5 was > 100 µM (inactive) in each case. The GI50 in the assay on ACHN, in the assay on HOP-62, in the assay on TK-10 and in the assay with Malme-3M was > 100 µM (inactive) each time.

`CCC1(Cl)C(=O)NC(=O)N(C2CC(O)C(CO)O2)C1N=[N+]=[N-]` (stereo not drawn): the GI50 in the assay with SK-OV-3 is > 100 µM (inactive); with RXF 393 it was 41.2 µM (inactive); in the assay with UO-31, > 100 µM (inactive); in the assay with LOX IMVI it was > 100 µM (inactive); with OVCAR-4 it was > 100 µM (inactive); with HT-29 it was > 100 µM (inactive). The GI50 in the assay with K562, with U-251, with HCC 2998, in the assay on SF-268, with OVCAR-5 and in the assay on ACHN was > 100 µM (inactive) each time. The GI50 with HOP-62, in the assay with TK-10 and in the assay with Malme-3M was > 100 µM (inactive) in each case.

In the case of `CC/C(CC(=O)CCC(=O)Nc1c(C)cccc1C)=N\NC(=O)NN`, the GI50 in the assay on HCT-15 is > 100 µM; in the assay on RXF 393 it was > 100 µM (inactive); with KM12, > 100 µM (inactive); with UO-31, > 100 µM (inactive); in the assay with OVCAR-4, > 100 µM (inactive); in the assay on HT-29, > 100 µM (inactive). In addition, the GI50 in the assay on K562, in the assay on U-251, in the assay on HCC 2998, in the assay with SF-268, in the assay with OVCAR-5 and with ACHN was > 100 µM (inactive) each time. Moreover, the GI50 in the assay with TK-10 and in the assay with Malme-3M was > 100 µM (inactive) each time.

Consider `COC(=O)CCC1CCc2c(OC)ccc(O)c2C1=O` (stereo not drawn), for which the GI50 in the assay on SK-OV-3 is > 100 µM (inactive); with HCT-15 it was > 100 µM; in the assay on RXF 393 it was > 100 µM (inactive); in the assay with KM12, > 100 µM (inactive); in the assay on UO-31 it was 55.8 µM (inactive); with LOX IMVI, > 100 µM (inactive). The GI50 in the assay with OVCAR-4, with HT-29, with K562, with U-251, in the assay with HCC 2998 and with SF-268 was > 100 µM (inactive) each time. In addition, the GI50 with ACHN, in the assay on HOP-62, in the assay on TK-10 and with Malme-3M was > 100 µM (inactive) throughout.

(Values after ChEMBL document CHEMBL1201862, “PubChem BioAssay data set” (2004).)
